Results on seven compounds are retold here after ChEMBL document CHEMBL1122846, “Design and synthesis of new transition-state analogue inhibitors of aspartate transcarbamylase” (J Med Chem, 1985).

A short description of one assay: Compound is evaluated for inhibition of aspartate transcarbamoylase (ATCase). Also noted: species or system Escherichia coli.
Regarding `O=C(O)CC(SCP(=O)(O)O)C(=O)O` (configuration not stated), the Ki was determined as 1100 µM.

A short description of a further assay: Compound is evaluated for inhibition of aspartate transcarbamoylase (ATCase). Also noted: species or system Escherichia coli.
`O=C(O)CC(CS(=O)(=O)CP(=O)(O)O)C(=O)O` (configuration not stated): the affinity, expressed as Ki, was 650 µM.

With `O=C(O)CC(CSCP(=O)(O)O)C(=O)O` (configuration not stated), the affinity corresponds to a Ki of 430 µM. On to `O=C(O)CC(OC(=O)CP(=O)(O)O)C(=O)O` (configuration not stated), for which the Ki came to 2 µM.

`O=C(O)CC(NS(=O)(=O)CP(=O)(O)O)C(=O)O` (configuration not stated) registered a Ki of 500 µM. Still for that read-out and setting: in the case of `O=C(O)CC(NC(=O)CP(=O)(O)O)C(=O)O` (configuration not stated) [SPARFOSIC ACID] it was 0.03 µM; in that of `O=C(O)CC(C[S+]([O-])CP(=O)(O)O)C(=O)O` (configuration not stated), 2300 µM.
